The structures appear in SMILES notation.

T1 sequence (Q92633 whole entry): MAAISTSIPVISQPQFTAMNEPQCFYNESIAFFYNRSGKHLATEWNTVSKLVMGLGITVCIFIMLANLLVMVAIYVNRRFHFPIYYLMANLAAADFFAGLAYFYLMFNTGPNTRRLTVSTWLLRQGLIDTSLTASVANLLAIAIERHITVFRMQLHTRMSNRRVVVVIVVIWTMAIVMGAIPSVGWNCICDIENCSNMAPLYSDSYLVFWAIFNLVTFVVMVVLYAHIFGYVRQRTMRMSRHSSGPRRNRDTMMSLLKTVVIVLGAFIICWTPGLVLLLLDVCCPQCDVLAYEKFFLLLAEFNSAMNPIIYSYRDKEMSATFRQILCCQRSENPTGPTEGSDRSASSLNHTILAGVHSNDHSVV

One assay addresses T1, LPA/S1P GPCR of interest (Homo sapiens, UniProt Q92633).
T1 construct: host or cells: CHO
The assay can be described thus: Beta-Arrestin based assay (PathHunter). The format is cell-based.
Conditions: not given
In short, it runs like this: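 EA Parental CHO cells (DiscoverX) were transfected with FuGENE (Roche) using CMV promoter-driven DNA constructs encoding the LPA/S1P GPCR of interest fused to a ProLink tag. Beta-arrestin recruitment in agonist mode was assessed 24-48 hrs later with PathHunter kits. Tests ran in quadruplicate in white 384 well plates, and end point luminescence was fit to a 4 parameter logistic function.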
`Cc1noc(-c2ccc(-c3ccc(Oc4ccc(C(=O)O)s4)cc3)cc2)c1NC(=O)O[C@H](C)c1ccccc1` [IT409] gave an EC50 of 50 to 500 nM.
Still for that read-out and setting: under `C[C@@H](OC(=O)Nc1c(-c2cc3sc(-c4ccc(C5(C(=O)O)CC5)nc4)cc3s2)cnn1C)c1ccccc1` [IT269] stands 50 to 500 nM; under `Cc1cc(-c2cc3sc(-c4snc(C)c4NC(=O)O[C@H](C)c4ccccc4)cc3s2)ccc1CC(=O)O` [IT292], more than 500 nM; under `C[C@@H](OC(=O)Nc1nn(C)cc1-c1ccc(-c2cc(F)c(Oc3ncccc3C(=O)O)c(F)c2)cc1)c1ccccc1` [IT472], more than 500 nM.
In turn, `CC(C)[C@@H](NC(=O)C#Cc1ccc(-c2cnn(C)c2NC(=O)O[C@H](C)c2ccccc2)cc1)C(=O)O` [IT403] registered an EC50 of more than 500 nM.
For `C[C@@H](OC(=O)Nc1c(-c2cc3sc(-c4ccc5c(CC(=O)O)c[nH]c5c4)cc3s2)cnn1C)c1ccccc1` [IT377], the EC50 is more than 500 nM.
The compound `Cc1nsc(-c2cc3sc(-c4ccc(C5(C(=O)O)CC5)nc4)cc3s2)c1NC(=O)O[C@H](C)c1ccccc1` [IT271] returned an EC50 of 50 to 500 nM.
The compound `C[C@@H](OC(=O)Nc1c(-c2cc3sc(-c4ccc(C5(C(=O)O)CC5)s4)cc3s2)cnn1C)c1ccccc1` [IT272] returned an EC50 of 50 to 500 nM.
For the compound `C[C@@H](OC(=O)Nc1c(-c2cc3sc(-c4ccc(-c5nnc(C6(C(=O)O)CC6)s5)cc4)cc3s2)nnn1C)c1ccccc1` [IT288], the EC50 was in the range of 50 to 500 nM.
In turn, `Cc1cc(-c2cc3sc(-c4cnn(C)c4NC(=O)O[C@H](C)c4ccccc4)cc3s2)ccc1CC(=O)O` [IT254] showed an EC50 of 50 to 500 nM.
Consider `Cc1nsc(-c2cc3sc(-c4ccc(C5(C(=O)O)CC5)cn4)cc3s2)c1NC(=O)O[C@H](C)c1ccccc1` [IT426], for which the EC50 lay in the range of 50 to 500 nM.
As for `C[C@@H](OC(=O)Nc1c(-c2cc3sc(-c4ccc5c(C6(C(=O)O)CC6)coc5c4)cc3s2)cnn1C)c1ccccc1` [IT395], the EC50 is more than 500 nM.
With `C[C@@H](OC(=O)Nc1c(-c2ccc(-c3nnc(C4(C(=O)O)CC4)s3)cc2)nnn1C)c1ccccc1` [IT208], the EC50 is more than 500 nM.
Same read-out and setting: under `COc1cc(C2(C(=O)O)CC2)c(OC)cc1-c1cc2sc(-c3snc(C)c3NC(=O)O[C@H](C)c3ccccc3)cc2s1` [IT413] stands more than 500 nM; under `Cc1nsc(-c2ccc3c(c2)CCCc2cc(CC(=O)O)ccc2-3)c1NC(=O)O[C@H](C)c1ccccc1` [IT225], 50 to 500 nM; under `Cc1nsc(-c2cc3sc(-c4ccc(C5(C(=O)O)CC5)c(Cl)c4)cc3s2)c1NC(=O)O[C@H](C)c1ccccc1` [IT267], 50 to 500 nM.
On the same count and under the same terms, under `C[C@@H](OC(=O)Nc1c(-c2cc3sc(-c4ccc(CC(=O)O)cc4OC(F)(F)F)cc3s2)cnn1C)c1ccccc1` [IT383] stands more than 500 nM; under `Cc1cc(CC(=O)O)c(F)cc1-c1cc2sc(-c3nnn(C)c3NC(=O)O[C@H](C)c3ccccc3)cc2s1` [IT253], 50 to 500 nM; under `Cc1nsc(-c2cc3sc(-c4ccc(-c5nnc(CC(=O)O)s5)cc4)cc3s2)c1NC(=O)O[C@H](C)c1ccccc1` [IT213], more than 500 nM.
`Cc1nsc(-c2ccc(-c3ccc(C(=O)O)s3)cc2)c1NC(=O)O[C@H](C)c1ccccc1` [IT144] displayed an EC50 of more than 500 nM.
As for `Cc1noc(-c2ccc(NC(=O)c3csc(C4(C(=O)O)CC4)n3)cc2)c1NC(=O)O[C@H](C)c1ccccc1` [IT152], the EC50 was more than 500 nM.
With `COc1cc(-c2cc3sc(-c4cnn(C)c4NC(=O)O[C@H](C)c4ccccc4)cc3s2)ccc1CC(=O)O` [IT221], the EC50 fell in the range of 50 to 500 nM.
`C[C@@H](OC(=O)Nc1c(-c2cc3sc(-c4ccc5[nH]cc(CC(=O)O)c5c4)cc3s2)nnn1C)c1ccccc1` [IT298] gave an EC50 of 50 to 500 nM.
Compound `C[C@@H](OC(=O)Nc1c(-c2cc3sc(-c4ccc(C5(C(=O)O)CC5)c(C(F)(F)F)c4)cc3s2)cnn1C)c1ccccc1` [IT379] displayed an EC50 of 50 to 500 nM.
The compound `C[C@@H](OC(=O)Nc1c(-c2ccc(-c3nnc(C4(C(=O)O)CC4)o3)cc2)nnn1C)c1ccccc1` [IT175] showed an EC50 of more than 500 nM.
In turn, `C[C@@H](OC(=O)Nc1c(-c2cc3sc(-c4ccc(CC(=O)O)c(F)c4F)cc3s2)cnn1C)c1ccccc1` [IT211] registered an EC50 of 50 to 500 nM.
Still for that read-out and setting: under `Cc1nsc(-c2cc3sc(-c4ccc(C5(C(=O)O)CC5)c5ccccc45)cc3s2)c1NC(=O)O[C@H](C)c1ccccc1` [IT322] stands more than 500 nM.
Still for that read-out and setting: with `C[C@@H](OC(=O)Nc1c(-c2ccc(-c3ccc(C(=O)O)s3)cc2)nnn1C)c1ccccc1` [IT203] the figure was more than 500 nM; with `C[C@@H](OC(=O)Nc1c(-c2cc3sc(-c4ccc(-c5nnc(CC(=O)O)o5)cc4)cc3s2)cnn1C)c1ccccc1` [IT206], more than 500 nM; with `C[C@@H](OC(=O)Nc1c(-c2cc3sc(-c4ccc(CC(=O)O)c(C(F)(F)F)c4)cc3s2)cnn1C)c1ccccc1` [IT222], 50 to 500 nM.
Compound `C[C@@H](OC(=O)Nc1c(-c2ccc(C#CC(=O)N[C@H](C(=O)O)c3ccccc3)cc2)cnn1C)c1ccccc1` [IT402] returned an EC50 of more than 500 nM.
Turning to `C[C@@H](OC(=O)Nc1c(-c2cc3sc(-c4ccc5c(C6(C(=O)O)CC6)coc5c4)cc3s2)nnn1C)c1ccccc1` [IT396], the EC50 was 50 to 500 nM.
As for `C[C@@H](OC(=O)Nc1c(-c2cc3sc(-c4ccc5occ(C6(C(=O)O)CC6)c5c4)cc3s2)nnn1C)c1ccccc1` [IT335], the EC50 was more than 500 nM.
`C[C@@H](OC(=O)Nc1c(-c2cc3sc(-c4ccc(C5(C(=O)O)CC5)cc4C(F)(F)F)cc3s2)nnn1C)c1ccccc1` [IT299] came in with an EC50 of 50 to 500 nM.
Compound `Cn1ncc(C#Cc2cc3sc(C4(C(=O)O)CC4)cc3s2)c1N` [IT113] displayed an EC50 of more than 500 nM.
For the compound `Cc1nsc(-c2ccc(-c3ncc(C(=O)O)s3)cc2)c1NC(=O)O[C@H](C)c1ccccc1` [IT177], the EC50 was more than 500 nM.

The target in another assay is LPA1 (Homo sapiens, UniProt Q92633). The assay can be described thus: LPA1 Migration Assay (Oris). The format is cell-based. Also on record: host or cells: primary fibroblasts (lung, dermal), HFL-1, 3T3 and CHO cells expressing LPA1R. As to conditions: read-out: Cell Migration EC50. An excerpt: LPA1 Migration Assay Migration of primary fibroblasts (including lung, dermal), HFL-1, 3T3 and CHO cells expressing LPA1R were monitored using the Oris™ assay (Platypus Technologies, Madison, Wis.). These cells were dye (Cell Tracker Green™) loaded and serum starved for 12-24 hrs. In response to chemoattractants such as LPA and serum, the cells migrated inward in to the exclusion (detection) zone. After fixing, fluorescent cells in the detection zone were counted using a high content reader. The ability of LPA1 antagonists to inhibit cell migration is quantified by plotting cell number vs. compound concentration and curve fitting the resulting dose-response curve to a 4 parameter logistic function.
Sequence of LPA1 (Q92633 whole entry): as above
In the case of `Cc1noc(C#Cc2cc3sc(C4(C(=O)O)CC4)cc3s2)c1NC(=O)OCc1ccccc1` [IT048], the EC50 fell in the range of 50 to 500 nM.
On to `CCOC(=O)C1(c2cc3sc(C#Cc4cnn(C)c4NC(=O)O[C@H](C)c4ccccc4)cc3s2)CC1` [IT085], for which the EC50 was more than 500 nM.
Regarding `C[C@@H](OC(=O)Nc1c(C#Cc2ccc3cc(C4(C(=O)O)CC4)ccc3c2)sc2ncccc12)c1ccccc1` [IT035], the EC50 was in the range of 50 to 500 nM.
Still for that read-out and setting: with `Cc1noc(-c2ccc(-c3ccc4c(c3)CCCC4C(=O)O)cc2)c1NC(=O)O[C@H](C)c1ccccc1` (mixture of isomers) [IT039] the figure was more than 500 nM.
The same measure, in the same setting: under `C[C@@H](OC(=O)Nc1c(-c2ccc(-c3cc4sc(C5(C(=O)O)CC5)cc4s3)cc2)cnn1C)c1ccccc1` [IT056] stands 50 to 500 nM; under `Cc1nsc(-c2ccc(-c3cc4sc(C5(C(=O)O)CC5)cc4s3)cc2)c1NC(=O)O[C@H](C)c1ccccc1` [IT046], 50 to 500 nM; under `C[C@@H](OC(=O)N(C)c1c(C#Cc2cc3sc(C4(C(=O)O)CC4)cc3s2)cnn1C)c1ccccc1` [IT097], more than 500 nM.
As for `Cc1noc(-c2ccc(-c3ccc4c(c3)NC(=O)CC4C(=O)O)cc2)c1NC(=O)O[C@H](C)c1ccccc1` (some centres unmarked) [IT011], the EC50 was more than 500 nM.
Regarding `C[C@@H](OC(=O)Nc1c(-c2ccc(-c3cc4sc(C5(C(=O)O)CC5)cc4s3)cc2)nnn1C)c1ccccc1` [IT050], the EC50 lay in the range of 50 to 500 nM.
Same read-out and setting: with `C[C@@H](OC(=O)Nc1c(-c2cc(F)c(-c3ccc(C4(C(=O)O)CC4)cc3)cc2F)oc2ccccc12)c1ccccc1` [IT075] the figure was 50 to 500 nM.
Turning to `C[C@@H](OC(=O)Nc1c(CCc2cc3sc(C4(C(=O)O)CC4)cc3s2)cnn1C)c1ccccc1` [IT099], the EC50 was more than 500 nM.
As to `C[C@@H](OC(=O)Nc1c(-c2cc(F)c(-c3ccc(C4(C(=O)O)CC4)cc3)cc2F)nn2ccccc12)c1ccccc1` [IT049], the EC50 lay within 50 to 500 nM.
As to `C[C@@H](OC(=O)Nc1c(-c2ccc3cc(C#CC4(C(=O)O)CC4)ccc3c2)nnn1C)c1ccccc1` [IT146], the EC50 is 50 to 500 nM.
The same measure, in the same setting: with `Cc1nsc(C#Cc2cc3sc(C4(C(=O)O)CC4)cc3s2)c1NC(=O)O[C@H](C)c1ccccc1` [IT034] the figure was 50 to 500 nM.
On to `C[C@@H](OC(=O)Nc1c(-c2cc(F)c(-c3ccc(C4(C(=O)O)CC4)cc3)cc2F)nn2ncccc12)c1ccccc1` [IT061], for which the EC50 was 50 to 500 nM.
Same read-out and setting: with `Cc1nnn(-c2cc(F)c(-c3cc4sc(C5(C(=O)O)CC5)cc4s3)cc2F)c1NC(=O)O[C@H](C)c1ccccc1` [IT067] the figure was more than 500 nM; with `C[C@@H](OC(=O)Nc1c(-c2ccc(-c3ccc(C4(C(=O)O)CC4)cc3)cc2)nn2cccnc12)c1ccccc1` [IT052], more than 500 nM.
Same read-out and setting: under `C[C@@H](OC(=O)Nc1c(C#Cc2ccc3cc(C4(C(=O)O)CC4)ccc3c2)cnn1C)c1ccccc1` [IT014] stands 50 to 500 nM; under `C[C@@H](OC(=O)Nc1c(C#Cc2ccc3cc(C4(C(=O)O)CC4)ccc3c2)nnn1C)c1ccccc1` [IT064], 50 to 500 nM.
Take `Cc1noc(C#Cc2ccc3cc(CC4(C(=O)O)CC4)ccc3c2)c1NC(=O)O[C@H](C)c1ccccc1` [IT065]: the EC50 was more than 500 nM.
Regarding `C[C@@H](OC(=O)Nc1c(C#Cc2cc3sc(C4(C(=O)O)CC4)cc3s2)oc2ccccc12)c1ccccc1` [IT074], the EC50 is more than 500 nM.
In the case of `C[C@@H](OC(=O)Nc1c(C#Cc2cc3sc(C4(C(=O)O)CC4)cc3s2)nnn1C)c1ccccc1` [IT069], the EC50 was 50 to 500 nM.
Take `CCn1ncc(C#Cc2ccc3cc(C4(C(=O)O)CC4)ccc3c2)c1NC(=O)O[C@H](C)c1ccccc1` [IT016]: the EC50 lay within 50 to 500 nM.
